# Measured values: patent US9914727B2, “Factor IXa inhibitors” (Merck Sharp & Dohme Corp., priority 2012, dated 2018)
# Target: Factor IXa (Homo sapiens, UniProt P00740)
# Experiment: Determination of inhibitory activity against Factor IXa (FIXa Low Enzyme; cleavage of fluorescent peptide CH3SO2-D-CHG-Gly-Arg-AFC)
# Assay type: biochemical
# Conditions: fluorogenic peptide substrate CH3SO2-D-CHG-Gly-Arg-AFC.AcOH; excitation 405, emission 510
# Description: Determination of Inhibitory Activity Against Factor IXa
# Formation of a clot to stem bleeding at a site of blood vessel injury involves the coordinated activity of a group of plasma proteins that initiate and propagate fibrin formation and subsequently protect fibrin from premature degradation. Factor IX is a key component of the plasma system that forms a fibrin clot at a site of vascular injury. The activity of Factor IXa is measured by monitoring the cleavage of the fluorescent peptide, CH3SO2-D-CHG-Gly-Arg-AFC.AcOH (“CHG” is cyclohexyl-glycine and “AFC” is trifluoro aminomethyl coumarin). Factor IXa cleaves the […] bond between Arg and AFC, thereby releasing the AFC fluorophore. The free AFC can be detected with a fluorescence detector at an excitation wavelength of 405 nm and emission wavelength of 510 nm.
# Chain of Factor IXa (P00740 227-461 limits assumed): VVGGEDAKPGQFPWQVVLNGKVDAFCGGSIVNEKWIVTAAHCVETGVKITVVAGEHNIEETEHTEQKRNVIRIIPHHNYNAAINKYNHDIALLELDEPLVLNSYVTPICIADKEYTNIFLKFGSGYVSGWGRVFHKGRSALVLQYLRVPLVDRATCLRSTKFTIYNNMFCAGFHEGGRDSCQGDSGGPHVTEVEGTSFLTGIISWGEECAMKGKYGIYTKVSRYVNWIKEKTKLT
# Chain of Factor IXa (P00740 47-191 partner limits assumed): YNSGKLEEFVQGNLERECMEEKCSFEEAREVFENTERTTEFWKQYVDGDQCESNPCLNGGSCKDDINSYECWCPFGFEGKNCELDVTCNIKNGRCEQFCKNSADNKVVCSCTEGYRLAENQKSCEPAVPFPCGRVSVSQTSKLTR
row,SMILES,FIXa Low Enzyme
1,"C[C@](O)(c1nc(=O)c2c(ccc3c(N)nsc32)[nH]1)[C@H]1OCCN(c2cccc(C(F)(F)F)n2)C1=O [Example 3, (R)-2-((S)-1-(3-Amino-9-oxo-6,9-dihydroisothiazolo[5,4-f]quinazolin-7-yl)-1-hydroxyethyl)-4-(6-(trifluoromethyl)pyridin-2-yl)morpholin-3-one]",577.9 nM
2,"C[C@]1([C@@H](O)c2nc(=O)c3c(ccc4c(N)nsc43)[nH]2)OCCN(c2ccn(-c3ccc(=O)n(C(F)F)c3)n2)C1=O [Example 1, (R)-2-((S)-(3-Amino-9-oxo-6,9-dihydroisothiazolo[5,4-f]quinazolin-7-yl)(hydroxy)methyl)-4-(1-(1-(difluoromethyl)-6-oxo-1,6-dihydropyridin-3-yl)-1H-pyrazol-3-yl)-2-methylmorpholin-3-one]",102.1 nM
3,"C[C@]1([C@@H](O)c2nc(=O)c3c(ccc4c(N)nsc43)[nH]2)OCCN(c2ccn(-c3ccnnc3)n2)C1=O [Example 2, (R)-2-((S)-(3-Amino-9-oxo-6,9-dihydroisothiazolo[5,4-f]quinazolin-7-yl)(hydroxy)methyl)-2-methyl-4-(1-(pyridazin-4-yl)-1H-pyrazol-3-yl)morpholin-3-one]",8.597 nM
4,"CC(C)(O)c1cccc(N2CCO[C@](C)([C@@H](O)c3nc(=O)c4c(ccc5c(N)nsc54)[nH]3)C2=O)n1 [Example 4, (R)-2-((S)-(3-Amino-9-oxo-6,9-dihydroisothiazolo[5,4-f]quinazolin-7-yl)(hydroxy)methyl)-4-(6-(2-hydroxypropan-2-yl)pyridin-2-yl)-2-methylmorpholin-3-one]",352.7 nM
